In ChEMBL document CHEMBL1149656, “Respiratory syncytial virus fusion inhibitors. Part 6: an examination of the effect of structural variation of the benzimidazol-2-one heterocycle moiety” (Bioorg Med Chem Lett, 2007):

Legend:
[1] = test system: Respiratory syncytial virus; experiment: Antiviral activity against RSV Long in Hep2 cells; format: functional, organism-based; details: human respiratory syncytial virus, HEp-2
[2] = Cytotoxicity against human Hep2 cells; format: cell-based, HEp-2
[3] = test system: Respiratory syncytial virus; experiment: Antiviral activity against RSV Long with F1 protein K349R mutation in Hep2 cells; format: functional, organism-based; details: hep-2
[4] = Metabolic stability in human liver microsomes; format: ADME, Microsome
[5] = test system: Respiratory syncytial virus; experiment: Reduction of viral RNA in lungs of RSV-infected BALB/c mouse at 50 mg/kg by RT-PCR method; format: functional, Lung

SMILES	EC50 [1] [nM]	CC50 [2] [µM]	EC50 [3] [nM]	half-life [4] [min]	log10 TCID50 [5]
CCOC(=O)Cn1c(=O)c2ccccc2n(Cc2nc3ccccc3n2CCn2cnnn2)c1=O	288	8.06	–	–	–
N#CCCCn1c(Cn2c(=O)n(C3CC3)c(=O)c3ccccc32)nc2ccccc21	171	9.05	> 500	–	–
NCc1ccc2c(c1)nc(Cn1c(=O)n(C3CC3)c(=O)c3ccccc31)n2CCCCO	18	> 181	> 500	> 100	0.45
O=c1ccc2ccccc2n1Cc1nc2ccccc2n1CCCCF	2300	103	–	–	–
CC(C)CCn1c(CN2C(=O)CSc3ccccc32)nc2ccccc21	274	6.78	–	–	–
N#CCCCCn1c(CN2C(=O)CS(=O)(=O)c3ccccc32)nc2ccccc21	1340	> 270	–	–	–
CC(C)CCn1c(CN2C(=O)C(=O)c3ccccc32)nc2ccccc21	230	69.8	–	–	–
CC1(C)C(=O)N(Cc2nc3ccccc3n2CCCCF)c2ccccc2S1(=O)=O	7670	158	–	–	–
CC(C)CCn1c(Cn2c(=O)n(C3CC3)c(=O)c3ccccc32)nc2cc(CN)ccc21	11	8.58	–	–	–
O=C(O)c1ccc(Cn2c(=O)c3ccccc3n(Cc3nc4ccccc4n3CCn3cnnn3)c2=O)cc1	550	54.7	–	–	–
CNCc1ccc2c(c1)nc(Cn1c(=O)n(C3CC3)c(=O)c3ccccc31)n2CCC(C)C	788	17.9	–	–	–
CN1C(=O)N(Cc2nc3ccccc3n2CCCCF)c2ccccc2S1(=O)=O	37	87.7	–	–	–
O=c1c2ccccc2n(Cc2nc3ccccc3n2CCCCF)c(=O)n1C1CC1	50	38.1	–	–	–
CCOC(=O)c1c(OC)c(=O)n(Cc2nc3ccccc3n2CCCCF)c2ccccc12	147	61.6	–	–	–
CN1C(=O)N(Cc2nc3ccccc3n2CCCCO)c2ccccc2S1(=O)=O	19	219	–	–	–
COc1cc(=O)n(Cc2nc3ccccc3n2CCCCF)c2ccccc12	211	59.5	–	–	–
CC(C)CCn1c(Cn2c(=O)n(C3CC3)c(=O)c3ccccc32)nc2cc(C(=O)O)ccc21	> 68700	102	–	–	–
COc1cc(=O)n(Cc2nc3cc(CN)ccc3n2CCCCF)c2ccccc12	9	24.1	> 5000	–	–
CC(C)CCn1c(CN2C(=O)C(CC(=O)O)c3ccccc32)nc2ccccc21 (centres undefined)	705	16.5	–	–	–
O=c1c(O)cc2ccccc2n1Cc1nc2ccccc2n1CCCCF	> 274000	20.2	–	–	–
CC(C)CCn1c(CN2C(=O)C(CC(=O)N(C)C)c3ccccc32)nc2ccccc21 (centres undefined)	205	4.67	–	–	–

SMILES	EC50 [1] [nM]	CC50 [2] [µM]	EC50 [3] [nM]	half-life [4] [min]	log10 TCID50 [5]
O=C(O)Cn1c(=O)c2ccccc2n(Cc2nc3ccccc3n2CCn2cnnn2)c1=O	5240	213	–	–	–
CS(=O)(=O)CCCn1c(Cn2c(=O)n(CC(F)(F)F)c(=O)c3ccccc32)nc2cc(CN)ccc21	21	> 123	500	–	–
CC(C)CCn1c(CN2C(=O)N(CC(=O)O)S(=O)(=O)c3ccccc32)nc2ccccc21	263	60.2	–	–	–
O=c1c2ccccc2n(Cc2nc3ccccc3n2CCCCO)c(=O)n1C1CC1	25	42.6	–	–	–
CC(C)CCn1c(CN2C(=O)CS(=O)(=O)c3ccccc32)nc2ccccc21	59	63	–	–	–
CC(C)CCn1c(Cn2c(=O)oc3ccccc32)nc2ccccc21	44	30.7	–	–	–
Cn1c(=O)c2ccccc2n(Cc2nc3ccccc3n2CCCCO)c1=O	82	48.6	–	–	–
CC(C)CCn1c(CN2C(=O)C(CC(=O)NCc3ccccc3)c3ccccc32)nc2ccccc21 (centres undefined)	110	0.72	–	–	–
COC(=O)c1ccc(Cn2c(=O)c3ccccc3n(Cc3nc4ccccc4n3CCC(C)C)c2=O)cc1	260	11.2	–	–	–
CC(C)CCn1c(Cn2c(=O)n(Cc3ccc(C(=O)O)cc3)c(=O)c3ccccc32)nc2ccccc21	9	19.3	–	–	–
Cn1c(=O)c2ccccc2n(Cc2nc3ccccc3n2CCCCF)c1=O	36	> 25.9	–	–	–
CCc1cc2ccccc2n(Cc2nc3ccccc3n2CCCCF)c1=O	902	85.1	–	–	–
O=C(O)c1c(O)c(=O)n(Cc2nc3ccccc3n2CCCCF)c2ccccc12	25900	> 38.6	–	–	–
N#CCCCCn1c(CN2C(=O)CCc3ccccc32)nc2ccccc21	1110	27.1	–	–	–
N#CCCCn1c(CN2C(=O)N(C3CC3)S(=O)(=O)c3ccccc32)nc2ccccc21	55	> 244	–	–	–
CC1(C)Sc2ccccc2N(Cc2nc3ccccc3n2CCCCF)C1=O	> 252000	32.6	–	–	–
CC(C)CCn1c(CN2C(=O)C(C)(O)c3ccccc32)nc2ccccc21 (centres undefined)	97	101	–	–	–
CN1C(=O)N(Cc2nc3ccccc3n2CCCS(C)(=O)=O)c2ccccc2S1(=O)=O	5730	34.5	–	–	–
COC(=O)c1ccc(Cn2c(=O)c3ccccc3n(Cc3nc4ccccc4n3CCn3cnnn3)c2=O)cc1	170	25.3	–	–	–
CC(C)CCn1c(CN2C(=O)N(C3CC3)S(=O)(=O)c3ccccc32)nc2cc(CN)ccc21	3	7.03	20	–	–
CC(C)CCn1c(CN2C(=O)Cc3ccccc32)nc2ccccc21	32	8.58	–	–	–

SMILES	EC50 [1] [nM]	CC50 [2] [µM]	EC50 [3] [nM]	half-life [4] [min]	log10 TCID50 [5]
COC(=O)c1ccc2c(c1)nc(Cn1c(=O)n(C3CC3)c(=O)c3ccccc31)n2CCC(C)C	> 217000	0.23	–	–	–
NCc1ccc2c(c1)nc(Cn1c(=O)n(CC(F)(F)F)c(=O)c3ccccc31)n2CCCCO	8	52.7	> 500	–	–
CC(C)CCn1c(CN2C(=O)C(O)c3ccccc32)nc2ccccc21 (centres undefined)	164	3.31	–	–	–
CN(C)CCn1c(CN2C(=O)CCc3ccccc32)nc2ccccc21	456	153	–	–	–
O=C1CS(=O)(=O)c2ccccc2N1Cc1nc2ccccc2n1CCCCF	229	211	–	–	–
CC(C)CCn1c(Cn2c(=O)n(CC(=O)O)c(=O)c3ccccc32)nc2ccccc21	1020	> 221	–	–	–
CCOC(=O)Cn1c(=O)c2ccccc2n(Cc2nc3ccccc3n2CCC(C)C)c1=O	1860	16.6	–	–	–
CC1(C)C(=O)N(Cc2nc3ccccc3n2CCCC#N)c2ccccc21	19	> 100	–	–	–
CC(C)CCn1c(CN2C(=O)C(CC(=O)NCCc3ccccc3)c3ccccc32)nc2ccccc21 (centres undefined)	379	0.94	–	–	–
O=C1CSc2ccccc2N1Cc1nc2ccccc2n1CCCCF	1020	> 96.4	–	–	–
CC(C)CCn1c(CN2C(=O)C(Cc3ccccc3)C(=O)c3ccccc32)nc2ccccc21 (centres undefined)	1810	20.1	–	–	–
COc1cc(=O)n(Cc2nc3cc(CN)ccc3n2CCCCO)c2ccccc12	8	81.5	> 500	–	–
N#CCCCn1c(Cn2c(=O)oc3ccccc32)nc2ccccc21	2510	> 300	–	–	–
O=C1N(Cc2nc3ccccc3n2CCCCF)c2ccccc2S(=O)(=O)N1C1CC1	432	111	–	–	–
O=c1c(Br)cc2ccccc2n1Cc1nc2ccccc2n1CCCCF	788	26.2	–	–	–
CCCCNCc1ccc2c(c1)nc(Cn1c(=O)n(C3CC3)c(=O)c3ccccc31)n2CCC(C)C	> 191000	4.15	–	–	–
CC(C)CCn1c(CN2C(=O)N(CC(=O)OC(C)(C)C)S(=O)(=O)c3ccccc32)nc2ccccc21	83	18.4	–	–	–
NCc1ccc2c(c1)nc(Cn1c(=O)n(C3CC3)c(=O)c3ccccc31)n2CCCCF	9	40.6	> 500	> 100	1.4
CC(C)CCn1c(Cn2c(=O)n(C3CC3)c(=O)c3ccccc32)nc2cc(CO)ccc21	314	62.1	–	–	–
NCc1ccc2c(c1)nc(Cn1c(=O)n(CC(F)(F)F)c(=O)c3ccccc31)n2CCCCF	8	11.8	> 500	> 100	1.6
